Values quoted from earlier work in patent US20260256792A1, “TREATMENT OF CHRONIC SPONTANEOUS URTICARIA BY ADMINISTERING (R)-2-[3-[4-AMINO-3-(2-FLUORO-4-PHENOXY-PHENYL)PYRAZOLO[3,4-D]PYRIMIDIN-1-YL]PIPERIDINE-1-CARBONYL]-4-METHYL-4-[4-(OXETAN-3-YL)PIPERAZIN-1-YL]PENT-2-ENENITRILE” (priority 2023, published 2026).

How the values were obtained:
[1] = system: rat Arthus reaction; details: cited from earlier work
[2] = system: 251 kinases sharing a common cysteine in their active site; details: 1 μM; cited from earlier work
[3] = system: platelet aggregation; details: healthy volunteers or patients with ITP; cited from earlier work

In the case of `CC(C)(C=C(C#N)C(=O)N1CCC[C@@H](n2nc(-c3ccc(Oc4ccccc4)cc3F)c3c(N)ncnc32)C1)N1CCN(C2COC2)CC1` [rilzabrutinib, (R)-2-[3-[4-amino-3-(2-fluoro-4-phenoxy-phenyl)pyrazolo[3,4-d]pyrimidin-1-yl]piperidine-1-carbonyl]-4-methyl-4-[4-(oxetan-3-yl)piperazin-1-yl]pent-2-enenitrile], the “rat Arthus reaction” value [1] is listed as “blockade”, the “number of kinases inhibited (>90% inhibition) of 251 kinases” value [2] is listed as 6 and the “effect on platelet aggregation” value [3] is listed as “does not alter”.
